Measured values reported in patent publication US20160256449A1, “H3 RECEPTOR ANTAGONIST FOR USE IN THE TREATMENT OF ALZHEIMER'S DISEASE” (SANOFI, priority 2013, published 2016).
Where a name gives a salt, the structure may show the parent alone.

Columns and labels:
various rodent models = conditions: cited from earlier work
CD1 male mice = experiment: object recognition test in normal mice; format: in vivo; conditions: 3 mg/kg oral, individually
Excerpt: FIG. 1 illustrates the results of the effect of a co-treatment with 2-(cyclohexyl methyl)-N-{2-[(2S)-1-methyl pyrrolidin-2-yl]ethyl}-1,2,3,4-tetrahydroisoquinoline-7-sulfonamide and donepezil on recognition memory in normal mice at various delays using the object recognition task.
The results of this study are depicted in FIG. 1.

scopolamine treated mice = experiment: object recognition task in scopolamine-treated mice; format: in vivo; conditions: 1 mg/kg alone
Excerpt: FIG. 2 illustrates the results of the effect of a co-treatment with 2-(cyclohexylmethyl)-N-{2-[(2S)-1-methylpyrrolidin-2-yl]ethyl}-1,2,3,4-tetrahydroisoquinoline-7-sulfonamide and donepezil on recognition memory deficit in scopolamine-treated mice using the object recognition task.
The results of this study are depicted in FIG. 2.

Structure (SMILES) | cognitive performances on short-term and long-term memory and attention deficits (various rodent models) | memory in object recognition test (CD1 male mice; 24 hours after administration) | procognitive effect in object recognition test (CD1 male mice; after 48 hours) | activity of the amount given alone, episodic memory deficits (scopolamine treated mice)
CN1CCC[C@H]1CCNS(=O)(=O)c1ccc2c(c1)CN(CC1CCCCC1)CC2 [2-(Cyclohexylmethyl)-N-{2-[(2S)-1-methylpyrrolidin-2-yl]ethyl}-1,2,3,4-tetrahydroisoquinoline-7-sulfonamide] | improves cognitive performances | – | – | –
COc1cc2c(cc1OC)C(=O)C(CC1CCN(Cc3ccccc3)CC1)C2 (racemic) [donepezil hydrochloride, (±)-2,3-dihydro-5,6-dimethoxy-2-[[1-(phenylmethyl)-4-piperidinyl]methyl]-1H-inden-1-one, reference compound] | – | enhanced the memory | lack of procognitive effect | inactive
